Entries after “also recorded” stand apart in the source; their conditions may differ. Square brackets hold non-standard residues; d marks the D form. Primed or numbered codes have the meaning given here. Ends that are not written are not given here. * marks the point of attachment. PE = 4-azidoproline (Pz) joined by click reaction (1,2,3-triazole) to NS; Biotin = O=C1N[C@H]2[C@H](CS[C@H]2CCCCC(=O)*)N1; PEG12′ = not defined here
Key:
[1] = test system: B16F10 murine melanoma cells bound to P-selectin-coated surfaces; test: Adhesion of calcein-labeled tumor cells to immobilized P-selectin; assay type: cell-based; details: B16F10 cells on P-selectin-coated surfaces
Excerpt: As such, it was examined if the strong binding affinity of (PE)12-NS toward P-selectin could translate into inhibition of P-selectin-mediated adhesion of tumor cells. To do so, recombinant P-selectin chimera protein with a Fc region was immobilized on Protein A-coated surfaces. The adhesion of calcein-labeled B16F10 murine melanoma cells to these surfaces in the presence of heparin or (PE)12-NS was then visualized (FIG. 16A) and quantified by fluorescence microplate reader (FIG. 16B).

[2] = test system: Factor IIa; test: BIOPHEN Heparin Anti-IIa assay in the presence of anti-thrombin; assay type: biochemical; details: at concentrations as high as 300 ug/ml, anti-thrombin present
Excerpt: (§1) One common drawback hampering the clinical application of negatively charged glycomimetics is the potentially hazardous tendency to activate anti-thrombin, which in turn severely impairs the ability of blood coagulation factors (e.g. Factor Xa and IIa) in the final common pathway to orchestrate blood coagulation. To verify the safety and clinical potential of the engineered non-saccharide glycomimetics of tunable spatial conformation, the effect of (PE)12-NS and heparin on the activity of blood coagulation factors, Factor Xa and IIa in the presence of anti-thrombin, was assessed. This assessment was performed using BIOPHEN Heparin Anti-Xa and Anti-IIa assays (Aniara) where the inhibitory effect of anti-thrombin on Factor Xa and IIa was determined by the ability of the factors to catalyze the hydrolysis of factor-specific chromogenic substrates. […] The use of spatial conformation to present key chemical motifs toward selectins is therefore specific and independent of other proteins that could lead to undesirable consequences if concomitant enhanced binding were to be seen.

[3] = test system: Factor Xa; test: BIOPHEN Heparin Anti-Xa assay in the presence of anti-thrombin; assay type: biochemical; details: at concentrations as high as 300 ug/ml, anti-thrombin present
Excerpt: as §1

[4] = test system: PC12 cells; test: Neurite outgrowth assay (GDNF-mediated neuritogenesis); details: 72 h; for effect on neuritogenesis: added to culture media, 20 μM, untreated cells
Experimental: PC12 cells were maintained in T75 tissue culture flasks in RPMI 1640 medium (ATCC® 30-2001) supplemented with 10% heat-inactivated horse serum (HI-HS, Gibco 26050-088), 5% fetal bovine serum (FBS, Gibco 26170-043) and 1% penicillin/streptomycin (Gibco 15140-122). Stock cultures from liquid nitrogen were grown at 37° C. with 5% CO2 in a humidified chamber for a minimum of 72 hr before experiments. Cells were seeded on 13 mm round glass coverslips (Paul Marienfeld 0111530). The coverslips were pretreated with 65% nitric acid for three days, washed with distilled water, 70% ethanol and 100% ethanol thrice each for 30 minutes with gentle rocking and then dried in a cell culture hood overnight under UV. For cell attachment, the treated coverslips were coated with laminin (25 μg/mL in PBS; Sigma L2020) at 37° C. for 1 hr, washed thrice with PBS, and then placed at the bottom of a 24-well plate for cell seeding. For all experiments, cells were cultured in RPMI 1640 differentiation media containing 1% HI-HS.
PC12 cells were first harvested and incubated in differentiation media or differentiation media supplemented with 30 μM of DPPE-(PE)12-NS for 2 h. After incubation, the cells were centrifuged and rinsed twice with fresh differentiation medium and then seeded onto laminin-coated coverslips at a density of 100 cells/mm^2. After allowing the cells to attach for 1 hr at 37° C., the medium was replaced with fresh differentiation medium supplemented with 200 ng/mL GDNF and 1 μg/mL GFRα1. As additional controls, (PE)12-NS or NS were further added to the supplemented medium to a final concentration of 20 μM for untreated cells. After 72 h, the cells were fixed with 4% paraformaldehyde solution (Tokyo Chemical Industry 30525-89-4 in PBS) for 15 minutes at room temperature and then rinsed with PBS. Bright-field images were taken using an Olympus IX71 Inverted Microscope at 20× magnification under phase contrast. For each condition, 400-500 randomly selected single cells were counted. The percentage of neurite-bearing cells was determined by counting the number of cells with neurites longer than the cell body. Experiments were repeated three times and done in duplicate each time.

[5] = target: T1, P-selectin (Homo sapiens, UniProt P16109); test: SPR binding to P-selectin; details: distributed vs single facial conformation
T1 sequence (P16109 42-830): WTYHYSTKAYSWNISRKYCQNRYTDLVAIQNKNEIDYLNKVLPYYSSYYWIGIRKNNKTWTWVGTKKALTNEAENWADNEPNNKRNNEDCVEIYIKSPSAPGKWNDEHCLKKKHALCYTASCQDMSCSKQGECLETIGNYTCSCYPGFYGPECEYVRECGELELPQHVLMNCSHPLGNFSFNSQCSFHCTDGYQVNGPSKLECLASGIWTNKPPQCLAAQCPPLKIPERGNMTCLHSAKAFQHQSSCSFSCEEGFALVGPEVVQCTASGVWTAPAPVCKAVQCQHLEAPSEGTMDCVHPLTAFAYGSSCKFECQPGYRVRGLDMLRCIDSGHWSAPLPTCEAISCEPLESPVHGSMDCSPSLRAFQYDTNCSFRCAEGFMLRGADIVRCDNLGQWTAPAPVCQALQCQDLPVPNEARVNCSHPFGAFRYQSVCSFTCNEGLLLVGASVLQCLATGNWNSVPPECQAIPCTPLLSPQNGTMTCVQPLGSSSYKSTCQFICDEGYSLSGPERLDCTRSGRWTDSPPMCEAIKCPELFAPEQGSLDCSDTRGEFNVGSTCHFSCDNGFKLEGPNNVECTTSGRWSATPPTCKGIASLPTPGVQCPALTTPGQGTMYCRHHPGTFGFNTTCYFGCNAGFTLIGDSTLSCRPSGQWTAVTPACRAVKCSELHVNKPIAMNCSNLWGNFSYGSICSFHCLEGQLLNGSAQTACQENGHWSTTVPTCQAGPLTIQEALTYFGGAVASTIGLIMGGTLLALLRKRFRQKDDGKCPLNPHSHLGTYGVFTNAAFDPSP
Experimental: SPR measurements were performed using a Biacore T100 system (GE Healthcare). The CM5 sensor chip was primed with HBS-EP+ buffer (10 mM HEPES pH 7.4, 150 mM NaCl, 3.4 mM EDTA, 0.005% P20, GE Healthcare) and was activated using the standard amine-coupling protocol (1:1 mixture of 0.4 M EDC and 0.1M NHS). 0.008 mg/ml of streptavidin solution in 10 mM sodium acetate buffer (Acetate 5.0, GE Healthcare) was conjugated and remaining activated groups were quenched with 1 M ethanolamine solution (pH 8.5). The final amount of streptavidin covalently immobilized on the surface was typically 700 RU. Flow cell 1 (or 3) was used as a reference to subtract nonspecific binding, drift, and the bulk refractive index, while flow cell 2 (or 4) was further immobilized with GAG mimetic agents or natural polysaccharides. […] Immobilized amount is normalized by a molecular weight. For a given affinity measurement, varying amount of protein solutions were successively injected into the flow cells for 240 seconds of contact time and 800 seconds of dissociation time using a flow rate of 50 μL/min at 25° C. Flow cell was regenerated using 2.5 M MgCl2 at 30 μL/min. Association (ka) and dissociation (kd) rate constants were calculated with a 1:1 binding model using Biacore evaluation software, and KD values were calculated from the ratio of kd to ka. […]

[6] = target: GFRα1 (Homo sapiens, UniProt P56159)
Chain of GFRα1 (Homo sapiens, UniProt P56159) (P56159 25-429, species assumed): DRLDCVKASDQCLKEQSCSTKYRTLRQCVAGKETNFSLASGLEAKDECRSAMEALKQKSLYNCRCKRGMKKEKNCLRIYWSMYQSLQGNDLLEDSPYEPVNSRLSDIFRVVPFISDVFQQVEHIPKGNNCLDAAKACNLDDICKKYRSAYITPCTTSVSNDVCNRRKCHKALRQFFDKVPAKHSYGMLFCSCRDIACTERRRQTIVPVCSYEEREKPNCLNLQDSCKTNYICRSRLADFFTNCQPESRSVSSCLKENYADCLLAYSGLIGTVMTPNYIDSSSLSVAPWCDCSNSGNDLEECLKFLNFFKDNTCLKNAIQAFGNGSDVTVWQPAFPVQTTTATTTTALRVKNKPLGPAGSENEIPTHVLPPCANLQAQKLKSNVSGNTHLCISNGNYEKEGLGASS
Experimental: (§2) SPR measurements were performed using a Biacore T100 system (GE Healthcare). The CM5 sensor chip was primed with HBS-EP+ buffer (10 mM HEPES pH 7.4, 150 mM NaCl, 3.4 mM EDTA, 0.005% P20, GE Healthcare) and was activated using the standard amine-coupling protocol (1:1 mixture of 0.4 M EDC and 0.1M NHS). 0.008 mg/ml of streptavidin solution in 10 mM sodium acetate buffer (Acetate 5.0, GE Healthcare) was conjugated and remaining activated groups were quenched with 1 M ethanolamine solution (pH 8.5). The final amount of streptavidin covalently immobilized on the surface was typically 700 RU. Flow cell 1 (or 3) was used as a reference to subtract nonspecific binding, drift, and the bulk refractive index, while flow cell 2 (or 4) was further immobilized with GAG mimetic agents or natural polysaccharides. […] Immobilized amount is normalized by a molecular weight. For a given affinity measurement, varying amount of protein solutions were successively injected into the flow cells for 240 seconds of contact time and 800 seconds of dissociation time using a flow rate of 50 μL/min at 25° C. Flow cell was regenerated using 2.5 M MgCl2 at 30 μL/min. Association (ka) and dissociation (kd) rate constants were calculated with a 1:1 binding model using Biacore evaluation software, and KD values were calculated from the ratio of kd to ka. Kinetic parameters were obtained by fitting curves to a 1:1 Langmuir model with baseline correction.
(§3) With the non-saccharide glycosaminoglycan mimetics in hand, SPR was employed to facilitate quantitative, real-time kinetic analysis of non-saccharide glycosaminoglycan mimetic binding to GDNF and GFRα1.

[7] = target: GDNF (Homo sapiens, UniProt P39905)
Chain of GDNF (Homo sapiens, UniProt P39905) (P39905 76-211, species assumed): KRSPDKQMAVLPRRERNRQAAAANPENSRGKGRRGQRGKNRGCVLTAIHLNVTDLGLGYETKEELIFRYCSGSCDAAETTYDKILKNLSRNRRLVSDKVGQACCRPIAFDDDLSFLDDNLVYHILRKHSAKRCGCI
Experimental: as §2, §3

[8] = target: recombinant P-selectin chimera protein with a Fc region; test: cell-based or functional assay
[9] = target: GFRα1; test: SPR (Biacore T100), biotinylated mimetic on streptavidin CM5 chip, protein injected, 1:1 model
[10] = target: T2, GDNF; test: as above
T2 chain: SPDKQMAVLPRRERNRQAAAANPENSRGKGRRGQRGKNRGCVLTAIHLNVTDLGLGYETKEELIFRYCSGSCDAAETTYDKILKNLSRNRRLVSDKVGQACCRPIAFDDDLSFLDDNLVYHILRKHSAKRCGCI

[11] = target: T3, P-selectin; test: SPR (Biacore T100), biotinylated mimetic on streptavidin chip, selectin injected
T3 chain: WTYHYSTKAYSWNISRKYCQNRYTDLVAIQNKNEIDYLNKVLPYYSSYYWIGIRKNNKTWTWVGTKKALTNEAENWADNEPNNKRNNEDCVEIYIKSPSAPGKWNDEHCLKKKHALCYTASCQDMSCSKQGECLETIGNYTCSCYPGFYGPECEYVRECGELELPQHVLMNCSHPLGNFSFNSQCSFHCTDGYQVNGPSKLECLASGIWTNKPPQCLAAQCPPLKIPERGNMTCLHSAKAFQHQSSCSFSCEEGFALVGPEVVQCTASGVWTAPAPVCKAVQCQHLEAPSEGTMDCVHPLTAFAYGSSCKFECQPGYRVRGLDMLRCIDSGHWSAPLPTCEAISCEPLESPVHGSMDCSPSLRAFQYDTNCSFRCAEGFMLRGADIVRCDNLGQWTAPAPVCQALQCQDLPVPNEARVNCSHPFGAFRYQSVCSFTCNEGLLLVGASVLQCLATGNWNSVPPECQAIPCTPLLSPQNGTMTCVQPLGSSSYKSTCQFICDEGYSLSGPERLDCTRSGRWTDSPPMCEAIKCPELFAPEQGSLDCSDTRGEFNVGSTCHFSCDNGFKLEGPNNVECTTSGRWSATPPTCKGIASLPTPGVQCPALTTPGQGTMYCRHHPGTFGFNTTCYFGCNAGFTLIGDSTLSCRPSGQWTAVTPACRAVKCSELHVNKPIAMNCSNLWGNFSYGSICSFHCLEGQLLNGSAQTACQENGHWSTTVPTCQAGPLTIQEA

[12] = GFRα1, SPR, 1:1 binding model, 25° C.
[13] = SPR sensorgrams, 0.2-1.0 nM protein
[14] = GDNF, SPR, 1:1 binding model, 25° C.

## COC(=O)[C@@H]1C[C@@H](n2cc(CC(COS(=O)(=O)O)OS(=O)(=O)O)nn2)CN1C(=O)[C@@H]1C[C@@H](n2cc(CC(COS(=O)(=O)O)OS(=O)(=O)O)nn2)CN1C(=O)[C@@H]1C[C@@H](n2cc(CC(COS(=O)(=O)O)OS(=O)(=O)O)nn2)CN1C(=O)[C@@H]1C[C@@H](n2cc(CC(COS(=O)(=O)O)OS(=O)(=O)O)nn2)CN1C(=O)[C@@H]1C[C@@H](n2cc(CC(COS(=O)(=O)O)OS(=O)(=O)O)nn2)CN1C(=O)[C@@H]1C[C@@H](n2cc(CC(COS(=O)(=O)O)OS(=O)(=O)O)nn2)CN1C(=O)[C@@H]1C[C@@H](n2cc(CC(COS(=O)(=O)O)OS(=O)(=O)O)nn2)CN1C(=O)[C@@H]1C[C@@H](n2cc(CC(COS(=O)(=O)O)OS(=O)(=O)O)nn2)CN1C(=O)[C@@H]1C[C@@H](n2cc(CC(COS(=O)(=O)O)OS(=O)(=O)O)nn2)CN1C(=O)[C@@H]1C[C@@H](n2cc(CC(COS(=O)(=O)O)OS(=O)(=O)O)nn2)CN1C(=O)[C@@H]1C[C@@H](n2cc(CC(COS(=O)(=O)O)OS(=O)(=O)O)nn2)CN1C(=O)[C@@H]1C[C@@H](n2cc(CC(COS(=O)(=O)O)OS(=O)(=O)O)nn2)CN1C(=O)CCOCCOCCOCCOCCOCCOCCOCCOCCOCCOCCOCCOCCNC(=O)CCCC[C@@H]1SC[C@@H]2NC(=O)N[C@@H]21 (stereo partly drawn) [(PE)12-NS]
[1]
  concentration from which near-complete inhibition of adhesion is achieved: ≥ 0.6 µg/mL
[2]
  activity of Factor IIa: remained unaffected
[3]
  activity of Factor Xa: remained unaffected
[4]; GDNF and GFRα1
  effect on neuritogenesis: Complete inhibition
[4]; GDNF and GFRα1, listed as biotin-(PE)12-NS
  effect on neuritogenesis: completely inhibited neuritogenesis
[5]
  binding affinity to P-selectin (comparison in words): stronger binding affinity
[6]; [12]
  kd: 4.9 (± 1.7) × 10^−2 S^−1
  kα: 4.26 (± 0.90) × 10^5 M^−1S^−1
[6]; [13]
  binding affinity to GFRα1 (comparison in words): far higher binding affinity
[7]; [14]
  kd: 2.12 (± 0.07) × 10^−3 S^−1
  kα: 6.42 (± 0.28) × 10^5 M^−1S^−1
[7]; [13]
  binding affinity to GDNF (comparison in words): far higher binding affinity

## DPPE-(PE)12-NS (PPPPPPPPPPPP)
[4]; cells pre-incubated with 30 μM for 2 h, 200 ng/mL GDNF and 1 μg/mL GFRα1, control 16%
  percentage of neurite-bearing cells: 45%
[4]; cells pre-incubated with 30 μM for 2 h, GDNF and GFRα1
  neurite length: marked increase

## pent-4-yne-1,2-diyl bis(sulfate) [NS]
[4]; GDNF and GFRα1
  effect on neuritogenesis: No significant effect; also recorded: no discernable effect

B1: Biotin-(PE)12-NS (peptide)
peptide: {Biotin-PEG12′}-[PE][PE][PE][PE][PE][PE][PE][PE][PE][PE][PE][PE]
modifications: also: CO2CH3 methyl ester seen in NMR
notes: Non-saccharide glycosaminoglycan mimetic on a polyproline type II helix, with NS on all three faces; The biotinylated form was immobilised on streptavidin for SPR; also called distributed design; distributed conformation
[8]
  IC50 of inhibition of adhesion of calcein-labeled B16F10 murine melanoma cells to immobilized P-selectin: 0.18 µg/mL
  near-complete inhibition of adhesion of B16F10 cells to immobilized P-selectin: > 0.6 µg/mL
[9]
  Kd: 116 nM
  koff: 0.049 s⁻¹
  kon: 426000 M⁻¹ s⁻¹
[10]
  Kd: 3.3 nM
  koff: 0.00212 s⁻¹
  kon: 642000 M⁻¹ s⁻¹
[11]
  Kd: 6 nM
